Measured values as given in patent publication US12433860B2, “Treatment of multiple sclerosis comprising DHODH inhibitors” (Immunic AG, priority 2021, dated 2025).
Several values for one entry are separate records, joined by “and”; a condition that tells them apart may be missing. Equal entries are not always repeated. Structures can show the parent of a compound that is named as a salt.

What was measured:
[1] = tested on: patients with relapsing-remitting multiple sclerosis; experiment: EMPhASIS phase 2 trial Cohort 1: MRI lesions up to 24 weeks; format: in vivo, human
Description: Study design and participants: […] Eligible patients were randomly assigned in a 1:1:1 ratio by an interactive web response system to receive once-daily vidofludimus calcium (30 mg or 45 mg) or placebo over a 24 week period. Procedures: Participants took vidofludimus calcium (30 mg or 45 mg) or placebo once daily in the morning in a fasted state (before breakfast) for 24 weeks. To minimize the risk of changes to uric acid during the first seven days of dosing (induction phase), the assigned dose (containing vidofludimus calcium 15 mg, vidofludimus calcium 22.5 mg or placebo) was taken days 0-6 and then the full dose thereafter (maintenance phase). Participants underwent standardized brain MRI scans at baseline and every 6 weeks after the first day of dosing until week 24. MRI scans were centrally analyzed by a blinded and independent MRI center. […] In the case of suspected or protocol-defined confirmed relapse, corticosteroid treatment was provided at the discretion of the investigator. Pharmacokinetic and pharmacodynamic measurements were also collected. Outcomes: The primary endpoint was the difference in the cumulative number of combined unique active (CUA) lesions up to week 24 between vidofludimus calcium 45 mg and placebo in the intention-to-treat population (i.e., weeks 6 to 24). The key secondary was the same outcome between vidofludimus calcium 30 mg and placebo. A sensitivity analysis of the primary endpoint and key secondary endpoint was done in the per-protocol population and the modified intention-to-treat population. In addition, prespecified subgroup analyses of the primary endpoint and key secondary endpoint in the intention-to-treat population were done based on baseline demographics (gender, age, weight, country), MRI characteristics (gadolinium-enhancing lesions strata) and clinical characteristics (EDSS score, duration of disease and relapse history). […] Other secondary endpoints included: the difference in the cumulative number of combined unique active lesions up to week 24 between vidofludimus calcium 45 mg and vidofludimus calcium 30 mg; number or cumulative number of gadolinium-enhancing, T1, or T2 lesions up to 24 weeks; annualized relapse rate from baseline until week 24; proportion of relapse-free patients up to week 24; time-to-first relapse; change in EDSS score from baseline; proportion of patients with EDSS score progression; brain atrophy and other MRI endpoints; and safety and tolerability as assessed by the investigators. Annualized relapse rate was defined as the total number of confirmed relapses divided by the real exposure time in years assessed over the time during the double-blind treatment period. EDSS progression was defined as an increase compared to baseline of at least 1.0 point for patients with a baseline EDSS score of 1.0 to 4.0 or of at least 1.5 points for patients with a baseline EDSS score of 0. Vidofludimus calcium trough concentrations (weeks 6 and 24) were used to assess the correlation between pharmacokinetics and MRI-based assessments. The effects of vidofludimus calcium on serum neurofilament (baseline and week 24) were also analyzed. Statistical analysis: The primary and secondary efficacy endpoints were analyzed using a generalized linear model with a negative binomial distribution and a logarithmic link function. Independent effects included in the model were: treatment group; baseline volume of T2 lesions; MRI field strength; and baseline number of gadolinium-enhancing lesions. The natural log transformation of the time from the first dose to the date of the last MRI assessment was included as an offset term to account for different lengths of treatment.

[2] = tested on: patients with relapsing-remitting multiple sclerosis; experiment: EMPhASIS Cohort 1: safety and tolerability; settings: for proportion of patients with at least one treatment-emergent adverse event: 24 weeks, placebo 44%; for patients who discontinued the study treatment prematurely: placebo 7%
Description: (§1) Adverse events were assessed at screening, baseline, day 7, and weeks 6, 12, 18, and 24 and all unscheduled clinic visits. Routine clinical chemistries, haematology, liver function tests, and urinalysis were collected at baseline, day 7, and weeks 6, 12, 18, and 24. Vital signs and electrocardiogramere conducted at screening and regularly scheduled intervals. Adverse events of special interest included: red blood cells in urine, haematuria, and retroperitoneal colicky pain with suspected or confirmed nephrolithiasis.
(§2) The intention-to-treat population was defined as all randomized patients who received at least one dose of placebo or vidofludimus calcium and were analyzed by the groups to which they were randomized. The safety population included all randomized patients who received at least one dose of placebo or vidofludimus calcium and was analyzed by the treatment assigned. The per-protocol population was defined as all randomized patients receiving at least one dose of placebo or vidofludimus calcium and no violations of major protocol criteria during treatment. The modified intention-to-treat population was defined as all randomized patients receiving at least one dose of placebo or vidofludimus calcium and having all MRI scans available for analysis.

[3] = tested on: patients with relapsing-remitting multiple sclerosis; settings: in vivo
Description: as §1, §2

human DHODH = human DHODH (Homo sapiens, UniProt Q02127); settings: cited from earlier work
Sequence of human DHODH (Q02127 whole entry): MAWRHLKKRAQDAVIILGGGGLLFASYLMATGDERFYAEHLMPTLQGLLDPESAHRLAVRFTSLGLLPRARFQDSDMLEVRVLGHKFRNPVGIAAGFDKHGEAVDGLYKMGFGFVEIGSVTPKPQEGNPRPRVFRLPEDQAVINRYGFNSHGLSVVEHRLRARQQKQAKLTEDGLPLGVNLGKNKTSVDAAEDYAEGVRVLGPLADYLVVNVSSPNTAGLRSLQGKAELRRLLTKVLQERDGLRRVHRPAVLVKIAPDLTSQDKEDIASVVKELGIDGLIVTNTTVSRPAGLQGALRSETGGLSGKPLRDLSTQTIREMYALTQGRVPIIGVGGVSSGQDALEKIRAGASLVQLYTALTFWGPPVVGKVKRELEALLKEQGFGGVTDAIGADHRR

[4] = tested on: patients with RRMS and evidence of active disease; experiment: EMPhASIS Cohort 2 interim analysis: MRI lesions up to Week 12; format: in vivo, human
Description: Given the relative equal performance of the two doses in Cohort 1 (see Example 1) and to allow for pharmacodynamic modeling of the dose-response relationship, a lower dose was investigated. The objective of the Cohort 2 sub-trial is to obtain exploratory data on the dose response of IMU-838 by evaluating a lower IMU-838 dose i.e. 10 mg/day to provide additional data for pharmacodynamic modelling. The 10 mg IMU-838 dose was selected since it is more than 50% lower than the lowest effective dose of Cohort 1 (30 mg IMU 838) and avoids undesired overlap in serum trough levels for pharmacodynamic modelling of the pooled Cohort 1 and 2 data. A small placebo arm is included to provide blinding of patients and to relate Cohort 2 treatment effects. Assessments and procedures mostly follow those described for the main treatment period in the Cohort 1 main trial. Trial objectives and endpoints: The objective of this sub-trial is to obtain more efficacy and safety data of IMU-838 in patients with RRMS and to allow pharmacodynamic modelling of the dose response. The endpoints analyzed in this interim analysis were between-treatment differences in the following MRI parameters: cumulative number of CUA MRI lesions up to Week 12; cumulative number of new Gadolinium enhancing (Gd+) lesions up to Week 12; proportion of patients without CUA MRI lesions until Week 12; and proportion of patients without new Gd+ lesions until Week 12. Overall trial design and plan: This is a double-blind, placebo-controlled, randomized, parallel-group sub-trial of P2 IMU-838 MS to assess the efficacy and safety of once-daily oral 10 mg/day IMU-838 compared to placebo in patients with RRMS and evidence of active disease. The sub-trial consists of a blinded main treatment period and an open-label, extended treatment period (FIG. 2). Patients were randomized 1:4 to placebo and 10 mg IMU-838 on Day 0.

SMILES: COc1cccc(-c2ccc(NC(=O)C3=C(C(=O)O)CCC3)c(F)c2)c1 [vidofludimus calcium, 1-cyclopentene-1-carboxylic acid, 2-(((3-fluoro-3′-methoxy(1,1′-biphenyl)-4-yl)amino)carbonyl)-, calcium salt (2:1)]
- suppression of MRI activity ([1]; 30 mg dose, after 24-weeks of treatment, rrMS): 70%
- cumulative number of new gadolinium-enhancing lesions at week 24 ([1]; 30 mg once daily): 4.5 (95% Cl 2.7-7.7)
- Cumulative CUA lesions up to 24 weeks, adjusted mean (95% CI) ([1]; 30 mg once daily, key secondary endpoint analysis (30 mg vs placebo), intention-to-treat): 4.0 (2.2-7.2)
- Cumulative CUA lesions up to 24 weeks, adjusted mean (95% CI) ([1]; 30 mg once daily, secondary endpoint analysis (45 mg vs 30 mg), intention-to-treat): 4.2 (2.5-7.1)
- Rate ratio, cumulative CUA lesions up to 24 weeks ([1]; 30 mg vs placebo, intention-to-treat): 0.30
- cumulative number of new gadolinium-enhancing lesions at week 24 ([1]; 45 mg once daily): 4.0 (95% Cl 2.1-7.8)
- Cumulative CUA lesions up to 24 weeks, adjusted mean (95% CI) ([1]; 45 mg once daily, primary endpoint analysis (45 mg vs placebo), intention-to-treat): 2.4 (1.1-4.9)
- Cumulative CUA lesions up to 24 weeks, adjusted mean (95% CI) ([1]; 45 mg once daily, secondary endpoint analysis (45 mg vs 30 mg), intention-to-treat): 4.4 (2.4-8.1)
- Rate ratio, cumulative CUA lesions up to 24 weeks ([1]; 45 mg vs placebo, intention-to-treat): 0.38
- Rate ratio, cumulative CUA lesions up to 24 weeks ([1]; secondary endpoint (45 mg vs 30 mg), printed in the 30 mg line): 0.96
- patients experiencing serious adverse events ([2]; 30 mg group, considered unrelated to treatment): 2 patients
- proportion of patients with at least one treatment-emergent adverse event ([2]; 30 mg): 45%
- patients who discontinued the study treatment prematurely ([2]; 30 mg): 3%
- patients who met hepatotoxicity stopping rules ([2]; 45 mg group): two
- proportion of patients with at least one treatment-emergent adverse event ([2]; 45 mg): 41%
- patients who discontinued the study treatment prematurely ([2]; 45 mg): 6%
- Serious adverse events ([2]; across treatment groups): 0-3%
- Renal treatment-emergent events, patients ([2]; any dose, placebo 1%): 2%
- Hepatic treatment-emergent adverse events, patients ([2]; any dose, placebo 4%): 4%
- Adverse events of special interest, patients ([2]; any dose, ureterolithiasis, placebo 1%): 1%
- tolerability ([2]; both doses (30 mg and 45 mg)): well tolerated
- cardiovascular, haematological, infectious or malignancy-related adverse events ([2]; in vivo): No remarkable cardiovascular, haematological, infectious or malignancy-related adverse events
- changes in haematologic laboratory values (neutrophil, lymphocyte, leukocyte count) ([2]; in vivo): No changes
- changes in serum uric acid ([2]; over 24 weeks, any treatment group): No marked changes
- discontinuations attributable to treatment-emergent adverse events ([2]; vidofludimus calcium groups, placebo n=3): 2 patients
- Alopecia, fatigue, rash, and cystitis treatment-emergent adverse events not recorded in placebo-treated patients ([2]; vidofludimus calcium-treated patients): 1-4%
- deaths during the trial [3]: No deaths occurred
- potency against human DHODH (human DHODH): submicromolar potency
- suppression of CUA lesions at Week 12 compared with placebo ([4]; 10 mg): 32%
- Cumulative number of CUA MRI lesions up to Week 12, Mean ([4]; 10 mg (C2), mFAS, placebo 4.4): 3.0
- Patients without CUA MRI lesions over 12 weeks ([4]; 10 mg (C2), mFAS, placebo 41.4, listed as IMU-838): 46% and 45.7%
- Patients without New Gd+ lesions over 12 weeks ([4]; 10 mg (C2), mFAS, placebo 49.3, listed as IMU-838): 51% and 51.1%
- lowest effective dose in patients with rrMS ([4]; totality of Cohort 1 data and Week 12 interim analysis of Cohort 2): 30 mg
